Experimental data: publication PMC3090445 (Journal of the American Chemical Society, 2008)

Tests used:
[1] = target: HDAC1 (Homo sapiens, UniProt Q13547); format: biochemical
[2] = test system: transformed and non-transformed human- and murine-derived cell lines; details: transformed vs non-transformed human- and murine-derived cell lines; cited from earlier work

HDAC1, sequence (Q13547 whole entry): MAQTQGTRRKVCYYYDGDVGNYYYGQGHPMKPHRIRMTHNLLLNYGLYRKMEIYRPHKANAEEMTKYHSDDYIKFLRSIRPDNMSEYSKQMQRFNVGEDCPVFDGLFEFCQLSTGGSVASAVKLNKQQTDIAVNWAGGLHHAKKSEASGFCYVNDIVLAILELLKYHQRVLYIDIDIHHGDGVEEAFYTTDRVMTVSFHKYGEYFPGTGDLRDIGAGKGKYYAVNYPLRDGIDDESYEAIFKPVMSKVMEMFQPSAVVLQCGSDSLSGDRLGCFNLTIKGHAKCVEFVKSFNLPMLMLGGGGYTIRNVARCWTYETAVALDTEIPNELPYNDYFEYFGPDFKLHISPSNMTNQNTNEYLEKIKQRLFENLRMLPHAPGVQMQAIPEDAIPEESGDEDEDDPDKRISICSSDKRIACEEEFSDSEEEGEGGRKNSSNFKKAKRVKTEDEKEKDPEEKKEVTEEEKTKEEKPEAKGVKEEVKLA

Ki [1] | SMILES | differential growth inhibition [2]
0.12 nM | C/C=C1\NC(=O)[C@H]2CSSCC/C=C/[C@H](CC(=O)N[C@H](C(C)C)C(=O)N2)OC(=O)[C@H](C(C)C)NC1=O [FK228] | 
 | CCCCCCCC(=O)SCC/C=C/[C@@H]1CC(=O)NCc2nc(cs2)C2=N[C@@](C)(CS2)C(=O)N[C@@H](C(C)C)C(=O)O1 [largazole (1), largazole] | two- to ten-fold
